Test system: Human prostate cancer cell lines (PC-3 cells)
Assay: Measurement of cell death-inducing activity (Test Example 1)
Type: cell-based
Settings: PC-3, 48 h, 48 hours after addition, tested at 10, 1, 0.1, 0.025 and 0.00625 μmol/L, qualitative evaluation of 10 fields, read-out: Concentration showing the cell death-inducing activity (cell death-inducing rate not less than 40%)
Method in brief: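 PC-3 cells seeded at 1×10^5 cells/well and grown 48 h at 37 °C, 5% CO2, then exposed to compound at 10, 1, 0.1, 0.025 and 0.00625 μmol/L (DMSO control) for a further 48 h. Activity was called where cell death-inducing rate was not less than 40%.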

Row | Compound | minimal effective concentration [µM]
1 | CCn1nc(-c2ccc(C)cc2C)cc1NC(=O)OCc1ccc2nn(C)cc2c1 [Example 9-296] | 1
2 | COc1cc(Cl)ccc1-c1cc(NC(=O)OCc2ccc3cnn(C)c3c2)n(C)n1 [Example 9-297] | 10
3 | CCn1ncc2ccc(COC(=O)Nc3cc(-c4ccc(Cl)cc4OC)nn3C)cc21 [Example 9-298] | 10
4 | COc1cc(Cl)ccc1-c1cc(NC(=O)OCc2ccc3cn(C)nc3c2)n(C)n1 [Example 9-300] | 0.00625
5 | CCn1cc2ccc(COC(=O)Nc3cc(-c4ccc(Cl)cc4OC)nn3C)cc2n1 [Example 9-301] | 0.025
6 | CCn1cc2ccc(COC(=O)Nc3cc(-c4ccc(Cl)cc4OC)nn3CC)cc2n1 [Example 9-302] | 0.1
7 | CCn1nc(-c2ccc(C)cc2C)cc1NC(=O)OCc1ccc2cn(C)nc2c1 [Example 9-303] | 1
8 | CCn1cc2ccc(COC(=O)Nc3cc(-c4ccc(C)cc4C)nn3C)cc2n1 [Example 9-304] | 1
9 | CCn1cc2ccc(COC(=O)Nc3cc(-c4ccc(C)cc4C)nn3CC)cc2n1 [Example 9-305] | 1
10 | Cn1nc(NC(=O)OCc2ccc3c(c2)ncn3C)cc1-c1ccccc1 [Example 9-306] | 10
11 | COc1cc(Cl)ccc1-c1cc(NC(=O)OCc2ccc3c(c2)ncn3C)nn1C [Example 9-309] | 10
12 | COc1cc(Cl)ccc1-c1nn(C)c(NC(=O)OCc2ccc3c(c2)ncn3C)c1C [Example 9-311] | 10
13 | CCn1cnc2cc(COC(=O)Nc3c(C)c(-c4ccc(Cl)cc4OC)nn3C)ccc21 [Example 9-313] | 10
14 | Cn1nc2c(c1NC(=O)OCc1ccc3c(c1)ncn3C)COc1ccccc1-2 [Example 9-320] | 10
15 | CCn1nc2c(c1NC(=O)OCc1ccc3c(c1)ncn3C)COc1ccccc1-2 [Example 9-321] | 10
16 | Cn1nc2c(c1NC(=O)OCc1ccc3c(cnn3C)c1)COc1ccccc1-2 [Example 9-324] | 10
17 | Cn1cnc2cc(COC(=O)Nc3nnc(-c4ccc(Cl)cc4Cl)s3)ccc21 [Example 9-335] | 10
18 | CCn1nc(-c2ccc(Cl)cc2Cl)cc1NC(=O)OC(C)c1ccc2c(c1)ncn2C (centres unmarked) [Example 9-337] | 10
19 | COc1cc(Cl)ccc1-c1cc(NC(=O)OC(C)c2ccc3c(c2)ncn3C)n(C)n1 (centres unmarked) [Example 9-338] | 10
20 | Cc1ccc(-c2cc(NC(=O)OC(C)c3ccc4c(c3)ncn4C)n(C)n2)c(C)c1 (centres unmarked) [Example 9-339] | 10
21 | COc1cc(Cl)ccc1-c1nc(C)c(NC(=O)OCc2ccc3c(c2)nc2n3CC(O)C2)s1 (centres unmarked) [Example 9-340] | 0.025
22 | COc1cc(C)ccc1-c1nc(C)c(NC(=O)OCc2ccc3c(c2)nc2n3CC(O)C2)s1 (centres unmarked) [Example 9-341] | 0.025
23 | COc1cc(C)ccc1-c1nc(C)c(NC(=O)OCc2ccc3c(c2)nc2n3CCC(O)C2)s1 (centres unmarked) [Example 9-342] | 1
24 | COc1cc(Cl)ccc1-c1nc(C)c(NC(=O)OCc2ccc3c(c2)nc2n3CCC(O)C2)s1 (centres unmarked) [Example 9-343] | 0.1

Row | Compound | minimal effective concentration [µM]
25 | CCc1nc(-c2ccc(C)cc2OC)sc1NC(=O)OCc1ccc2c(c1)ncn2C [Example 9-344] | 0.00625
26 | CCc1nc(-c2ccc(Cl)cc2C)sc1NC(=O)OCc1ccc2c(c1)ncn2CC [Example 9-345] | 0.025
27 | CCc1nc(-c2ccc(F)cc2OC)sc1NC(=O)OCc1ccc2c(c1)ncn2CC [Example 9-346] | 0.025
28 | CCc1nc(-c2ccccc2OC)sc1NC(=O)OCc1ccc2c(c1)nc1n2CCC1 [Example 9-347] | 1
29 | CCc1nc(-c2ccc(F)cc2C)sc1NC(=O)OCc1ccc2c(c1)nc1n2CCC1 [Example 9-348] | 0.1
30 | CCc1nc(-c2ccc(Cl)cc2C)sc1NC(=O)OCc1ccc2c(c1)nc1n2CCC1 [Example 9-349] | 0.025
31 | CCc1nc(-c2ccc(C)cc2C)sc1NC(=O)OCc1ccc2c(c1)nc1n2CCC1 [Example 9-350] | 0.1
32 | CCc1nc(-c2ccccc2OC)sc1NC(=O)OCc1ccc2c(c1)nc1n2CCCC1 [Example 9-351] | 1
33 | CCc1nc(-c2ccc(F)cc2OC)sc1NC(=O)OCc1ccc2c(c1)nc1n2CCCC1 [Example 9-352] | 0.1
34 | CCc1nc(-c2ccc(C)cc2OC)sc1NC(=O)OCc1ccc2c(c1)nc1n2CCCC1 [Example 9-353] | 0.1
35 | CCc1nc(-c2ccc(C)cc2C)sc1NC(=O)OCc1ccc2c(c1)nc1n2CCCC1 [Example 9-354] | 1
36 | CCc1nc(-c2ccc(F)cc2C)sc1NC(=O)OCc1ccc2c(c1)nc1n2CCCC1 [Example 9-355] | 1
37 | CCc1nc(-c2ccc(Cl)cc2C)sc1NC(=O)OCc1ccc2c(c1)nc1n2CCCC1 [Example 9-356] | 0.1
38 | CCc1nc(-c2ccc(F)cc2OC)sc1NC(=O)OCc1ccc2c(c1)nc1n2CCOC1 [Example 9-357] | 0.025
39 | CCc1nc(-c2ccc(C)cc2OC)sc1NC(=O)OCc1ccc2c(c1)nc1n2CCOC1 [Example 9-358] | 0.025
40 | CCc1nc(-c2ccc(Cl)cc2C)sc1NC(=O)OCc1ccc2c(c1)ncn2C [Example 9-359] | 0.025
41 | CCc1nc(-c2ccc(F)cc2OC)sc1NC(=O)OCc1ccc2c(cnn2CC)c1 [Example 9-360] | 0.025
42 | CCc1nc(-c2ccc(F)cc2C)sc1NC(=O)OCc1ccc2c(cnn2CC)c1 [Example 9-361] | 0.1
43 | CCc1nc(-c2ccc(Cl)cc2C)sc1NC(=O)OCc1ccc2c(cnn2CC)c1 [Example 9-362] | 0.025
44 | CCc1nc(-c2ccc(F)cc2C)sc1NC(=O)OCc1ccc2nn(C)cc2c1 [Example 9-363] | 1
45 | CCc1nc(-c2ccc(Cl)cc2OC)sc1NC(=O)OCc1ccc2nn(C)cc2c1 [Example 9-364] | 0.025
46 | CCc1nc(-c2ccc(C)cc2OC)sc1NC(=O)OCc1ccc2nn(C)cc2c1 [Example 9-365] | 0.025
47 | CCc1nc(-c2ccc(C)cc2C)sc1NC(=O)OCc1ccc2nn(C)cc2c1 [Example 9-366] | 0.1
48 | CCc1nc(-c2ccccc2OC)sc1NC(=O)OCc1ccc2nn(CC)cc2c1 [Example 9-367] | 1

Row | Compound | minimal effective concentration [µM]
49 | CCc1nc(-c2ccc(C)cc2OC)sc1NC(=O)OCc1ccc2nn(CC)cc2c1 [Example 9-368] | 0.1
50 | CCc1nc(-c2ccc(F)cc2C)sc1NC(=O)OCc1ccc2nn(CC)cc2c1 [Example 9-369] | 1
51 | CCc1nc(-c2ccc(Cl)cc2C)sc1NC(=O)OCc1ccc2nn(CC)cc2c1 [Example 9-370] | 0.1
52 | CCc1nc(-c2ccc(C)cc2C)sc1NC(=O)OCc1ccc2nn(CC)cc2c1 [Example 9-371] | 1
53 | CCc1nc(-c2ccc(C)cc2OC)sc1NC(=O)OCc1ccc2c(c1)nnn2C [Example 9-372] | 0.00625
54 | CCc1nc(-c2ccc(Cl)cc2OC)sc1NC(=O)OCc1ccc2c(c1)nc(C)n2C [Example 9-373] | 0.025
55 | CCc1nc(-c2ccc(C)cc2OC)sc1NC(=O)OCc1ccc2c(c1)nc(C)n2C [Example 9-374] | 0.1
56 | CCc1nc(-c2ccc(C)cc2C)sc1NC(=O)OCc1ccc2c(c1)nc(C)n2C [Example 9-375] | 0.1
57 | CCc1nc(-c2ccc(Cl)cc2C)sc1NC(=O)OCc1ccc2c(c1)nc(C)n2C [Example 9-376] | 0.1
58 | CCc1nc(-c2ccc(Cl)cc2C)sc1NC(=O)OCc1ccc2c(c1)nc1n2CCOC1 [Example 9-377] | 0.025
59 | COc1cc(Cl)ccc1-c1cc(NC(=O)OCc2ccc3c(c2)ncn3C)n(C)c1 [Example 10-2, [4-(4-Chloro-2-methoxyphenyl)-1-methyl-1H-pyrrol-2-yl]carbamic acid 1-methyl-1H-benzimidazol-5-ylmethyl ester] | 1
60 | Cc1ccccc1-c1nc(C)c(COC(=O)Nc2ccc3c(c2)ncn3C)s1 [Example 13-1, (1-Methyl-1H-benzimidazol-5-yl)carbamic acid 4-methyl-2-(2-methylphenyl)thiazol-5-ylmethyl ester] | 0.1
61 | Cc1cc(Cl)ccc1-c1nc(C)c(COC(=O)Nc2ccc3c(c2)nnn3C)s1 [Example 13-3] | 0.1
62 | COc1cc(Cl)ccc1-c1nc(C)c(COC(=O)Nc2ccc3c(c2)ncn3C)s1 [Example 13-5] | 0.1
63 | Cc1ccc(-c2nc(C)c(COC(=O)Nc3ccc4c(c3)ncn4C)s2)c(C)c1 [Example 13-8] | 0.025
64 | Cc1cc(F)ccc1-c1nc(C)c(COC(=O)Nc2ccc3c(c2)ncn3C)s1 [Example 13-9] | 0.025
65 | Cc1cc(Cl)ccc1-c1nc(C)c(COC(=O)Nc2ccc3c(c2)ncn3C)s1 [Example 13-10] | 0.00625
66 | Cc1nc(-c2ccc(F)cc2Cl)sc1COC(=O)Nc1ccc2c(c1)ncn2C [Example 13-11] | 0.025
67 | CCn1cnc2cc(NC(=O)OCc3sc(-c4ccccc4C)nc3C)ccc21 [Example 13-12] | 0.1
68 | CCn1cnc2cc(NC(=O)OCc3sc(-c4ccc(Cl)cc4OC)nc3C)ccc21 [Example 13-13] | 0.1
69 | CCn1cnc2cc(NC(=O)OCc3sc(-c4ccc(C)cc4C)nc3C)ccc21 [Example 13-15] | 0.025
70 | CCn1cnc2cc(NC(=O)OCc3sc(-c4ccc(F)cc4C)nc3C)ccc21 [Example 13-16] | 0.025
71 | CCn1cnc2cc(NC(=O)OCc3sc(-c4ccc(Cl)cc4C)nc3C)ccc21 [Example 13-17] | 0.025
